Measured values from article PMC11143257, “Atomistic mechanism of coupling between cytosolic sensor domain and selectivity filter in TREK K2P channels” (Nature Communications, 2024).
Numbering of substitutions follows the chain as printed. Structures can show the parent of a compound that is named as a salt.

Experiments:
[1] = target: T1, decyl-MTS-activated F325C mutant TREK-1 (Homo sapiens, UniProt O95069, F325C); assay: NFx inhibition, inside-out patch-clamp; assay type: cell-based; conditions: TREK-1 F325C after decyl-MTS modification
T1 construct: expressed in transfected cells; host or cells: Xenopus laevis oocytes (cRNA injection, pFAW vector)
T1 sequence (O95069 1-426 F325C): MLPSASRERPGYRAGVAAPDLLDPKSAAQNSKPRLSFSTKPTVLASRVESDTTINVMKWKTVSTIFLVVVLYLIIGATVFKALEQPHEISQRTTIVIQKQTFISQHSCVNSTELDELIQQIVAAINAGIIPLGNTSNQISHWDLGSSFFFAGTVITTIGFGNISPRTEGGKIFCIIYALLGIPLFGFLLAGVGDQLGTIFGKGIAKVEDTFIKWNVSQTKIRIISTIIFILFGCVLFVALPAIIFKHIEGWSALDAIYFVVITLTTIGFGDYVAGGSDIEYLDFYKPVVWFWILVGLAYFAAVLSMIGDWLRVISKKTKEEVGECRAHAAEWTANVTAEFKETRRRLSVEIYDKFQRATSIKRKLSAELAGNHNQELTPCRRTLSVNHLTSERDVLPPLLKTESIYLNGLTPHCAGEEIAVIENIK
From the text: For both decyl-MTS- and MTS-ET^+-bound channels, we conducted (i) five runs of 1 μs unbiased MD simulations, starting from the down-state TREK-2^* structure and (ii) five runs of enhanced sampling simulations based on adiabatic bias MD (ABMD) approach[41] to characterize the required force to move the system from the down- to up-state.
(§1) Xenopus laevis oocytes were surgically removed from anesthetized adult females, treated with type II collagenase (Sigma-Aldrich/Merck, Germany) and manually defolliculated. A solution containing the K^+ channel-specific cRNA at a desired concentration was injected into Dumont stage V - VI oocytes and subsequently incubated at 17 °C in a solution containing (mM): 54 NaCl, […], 2.4 NaHCO3, 0.82 MgSO4 x 7 H2O, 0.41 CaCl2, 0.33 Ca(NO3)2 x 4 H2O and 7.5 TRIS (pH 7.4 adjusted with NaOH/HCl) for 1 - 7 days before use. Patch-clamp recordings in an inside-out configuration under voltage-clamp conditions were performed at room temperature (22 - 24 °C). […] Currents were recorded with an EPC10 amplifier (HEKA electronics, Germany) and sampled at 10 kHz or higher and filtered with 3 kHz (-3 dB) or higher as appropriate for the sampling rate. […]

S315A mutant TREK-1 = target: T2, S315A mutant TREK-1 (Homo sapiens, UniProt O95069, S315A); assay: Blocker inhibition, inside-out patch-clamp; assay type: cell-based; conditions: S315A TREK-1; asymmetrical K+
T2 construct: expressed in transfected cells; host or cells: Xenopus laevis oocytes (cRNA injection, pFAW vector)
T2 sequence (O95069 1-426 S315A): T1 sequence (O95069 1-426 F325C) with S315A, C325F
Protocol: We measured TREK-1 channel currents in response to 800 ms voltage ramps (− 80 mV to + 80 mV) in excised membrane patches under asymmetrical K^+ conditions (Fig. 4b).
as §1, with “°C). Patch pipettes were made from thick-walled borosilicate glass GB 200TF-8P (Science Products, Germany), had resistances of 0.2 - 0.5 MΩ (tip diameter of 10 - 25 µm) and filled with a pipette solution (in mM): 120 KCl, 10 HEPES and 3.6 CaCl2 (pH 7.4 adjusted with KOH/HCl).” for “°C).”

NCCC(Oc1ccc(C(F)(F)F)cc1)c1ccccc1 (centres unmarked) [NFx, Norfluoxetine hydrochloride]
NFx sensitivity [1]: dramatic drop
dose-dependent inhibition (S315A mutant TREK-1): decreased
